“Also recorded” adds a separate entry of the source.
Key:
HAdV type 5 [1] = assay: quantitative real-time PCR (qPCR) anti-adenoviral dose-response assay; assay type: cell-based, human adenovirus type 5 (strain F2853-5b) in A549 cells; conditions: for EC50: Human mastadenovirus C, A549 host cells, qPCR of viral genomes after 24 h, duplicates; for anti-adenoviral activity (in words): dose-response up to 0.4 mM, qPCR 24 h post infection (Figure 8B)
Description: In order to confirm the antiviral activity observed during the screening campaign (Figure 3) and determine the EC50 values of the analogs, we conducted a dose-response experiment by a standardized quantitative real-time PCR (qPCR) assay (Figure 5). In this assay, the number of adenoviral genomes is assessed in relationship to the number of cells and the replication of HAdV type 5 on A549 host cells was assessed.
Figure 5 Dose-response study of the identified compounds on HAdV type 5. Each concentration point was run in duplicate and qPCR-analysis performed after 24 h. The amount of HAdV type 5 genomes in each treated sample was compared to infected but non-treated samples to obtain the inhibition of the percentage of control (y-axis). See the experimental section for details.
The quantitative Real Time PCR (qPCR) assay was performed as previously described. Briefly, A549 cells in 24 well plates (Nunc™ #142475) were infected with HAdV type 5 (1 pg per cell) and incubated with compound for 24 h. Thereafter, cellular and viral DNA was prepared using a QIAamp DNA blood minikit (Qiagen, Solna, Sweden) and quantitative real-time PCR was used to detect newly synthesized viral DNA and the inhibitory effect of the compounds. The principle of quantitative real-time PCR and the design of primers and probes for analysis of various HAdV types representing different adenovirus species have previously been described. Quantitative real-time PCR was carried out using a primer pair and a FAM-labeled probe detecting and amplifying the viral hexon gene. The amount of detected viral hexon DNA was normalized to the cellular RNaseP gene. Real-time PCR was performed in an ABI Prism 7900HT sequence detector and analyzed with Sequence Detector software version 2.4 (Applied Biosystems®, Life Technologies, Grand Island, NY, USA).
Determination of the EC50 values was performed with non-linear regression analysis with a variable slope using GraphPad Prism software version 6.0c (GraphPad Software, San Diego, CA, USA).

[2] = XTT based cytotoxicity test on A549 cells; assay type: cell-based, human; conditions: human, A549 cells, 24 h, XTT, normalized against DMSO controls, two independent experiments; for viability at 24 h, 400 µM: read-out: % Viable Cells at 400 μM; for viability at 24 h, 800 µM: read-out: % Viable Cells at 800 μM
Text: (§1) Consideration of cellular cytotoxicity is essential when identifying antiviral compounds. Compounds that negatively interfere with the proliferation or viability of host cells will be recorded as false positives when assayed for antiviral activity. […] The XTT test measures the ability of mitochondrial enzymes to reduce 2,3-bis-(2-methoxy-4-nitro-5-sulfophenyl)-2H-tetrazolium-5-carboxanilide to a colored formazan dye that is spectrophotometrically quantified. […] Strikingly, butenolide 4 with the non-functionalized side-chain affected the viability dramatically. At both 400 and 800 μM of 4 the percentage of viable cells was close to zero, whereas for butenolide 1–3 the cells were as viable as the DMSO control at the concentrations tested. […] To further elucidate this difference and determine whether the cytotoxicity was cell type specific, we performed a dose-response experiment and investigated the cytotoxicity on human diploid fibroblasts derived from foreskin (FSU). FSU cells are isolated from the dermis of juvenile foreskin and, unlike A549 cells, are not derived from carcinoma, but primary cells with a limited expected number of cell divisions. […] However, the butenolide 4 with a non-functionalized side-chain reduced the viability of A549 cells and FSU cells to almost zero at 400 and 800 μM. […] The reason for the steep concentration dependence on cytotoxicity for the butenolide 4 containing a non-functionalized side-chain is presently unknown, and the large difference in cytotoxic potential between 4 and the other analogs is noteworthy when considering the minor structural differences in their side-chains.
(§2) The potential cytotoxic effect of the compounds was determined with XTT-based Cell Proliferation Kit II (Roche Applied Science, Penzberg, Germany). This method is a colorimetric assay based on the cleavage of the tetrazolium salt XTT to a soluble formazan salt by viable cells. Approximately, 13,000 A549 cells were seeded per well in 96-well plates on the day before addition of compounds. The next day, the growth medium was removed from the wells and replaced with 100 μL of phenol-red free DMEM with 2% FBS containing compound. In parallel, an amount of DMSO corresponding to the same amount of test compound was added to the cells and the plate was incubated at 37 °C for 20 h. Subsequently, 50 μL of XTT solution was added per well and the plate was incubated at 37 °C for 4 h and finally the intensity of the formazan dye was measured by spectrophotometry at a wavelength of 490 nm.

[3] = tested on: HAdV 5 virions binding to A549 cells; assay: binding assay with 35S-labelled HAdV 5 virions; assay type: cell-based, human adenovirus type 5 in A549 cells; conditions: A549 cells pre-treated with 200 μM for 1.5 h, compared to the control
Description: (§3) Figure 7 Characterization of the antiviral activity of the butenolide ketone 3. The antiviral activity of the compounds was obtained by comparing the amount of HAdV type 5 genomes per cell to non-treated but infected control samples (y-axis). (A) Time-of-addition assay where 200 μM of butenolide ketone 3 was added at different time points in comparison to the addition of HAdV 5 at time 0 h. Samples were analyzed 24 h after the infection (+24 h) with qPCR; (B) Binding assay with ^35S-labelled HAdV 5 virions, with 200 μM compound 3 pretreated A549 cells for 1.5 h prior time-of-infection (TOI) and no pretreatment; (C) Virucidal assay where HAdV 5 virions were pretreated with 200 μM of butenolide ketone 3 prior addition to A549 cells and analyzed after 24 h.
This was primarily to investigate in which stage of the viral infectious cycle that the butenolide ketone 3 inhibited and consequently to reduce the number of possible drug-targets for further mode-of-action analysis. […] Simultaneous addition of 200 μM of 3 and virus (0 h) reduced the viral replication to below 20%, which is consistent with Figure 5. […]
^35S labelling of HAdV 5 was performed as previously described as well as the binding experiment. […] The cell-associated radioactivity was measured using a liquid scintillation counter (Wallac 1409, Perkin-Elmer, Waltham, MA, USA).

[4] = tested on: FSU cells (human diploid fibroblasts derived from foreskin); assay: XTT based cytotoxicity dose-response on FSU cells; assay type: cell-based; conditions: 24 h
Text: as §1
Figure 6 The cytotoxicity profile of butenolide ketone 3 and butenolide 4 with a non-functionalized side chain, on two cell lines, A549 cells and FSU cells, analyzed after 24 h. See experimental section for details.
as §2

HAdV 5 virions = assay: virucidal assay; assay type: cell-based, human adenovirus type 5 in A549 cells; conditions: virions incubated with 200 μM for 2 h before infection, qPCR after 24 h
Description: as §3
This was primarily to investigate in which stage of the viral infectious cycle that the butenolide ketone 3 inhibited and consequently to reduce the number of possible drug-targets for further mode-of-action analysis. […]
The HAdV type 5 stock was diluted in DMEM (Sigma-Aldrich, St. Louis, MO, USA) with 2% FBS (Gibco®, Life Technologies, Grand Island, NY, USA) to the appropriate concentration to be added per well. […] In parallel, an identical mixture with no incubation time was added to wells as a control and the antiviral activity was analyzed 24 h post infection with qPCR assay.

HAdV type 5 [5] = assay: time-of-addition assay (qPCR); assay type: cell-based, human adenovirus type 5 in A549 cells
Description: as §3, with “24 h. […]” for “24 h.”
The quantitative Real Time PCR (qPCR) assay was performed as previously described. […] Thereafter, cellular and viral DNA was prepared using a QIAamp DNA blood minikit (Qiagen, Solna, Sweden) and quantitative real-time PCR was used to detect newly synthesized viral DNA and the inhibitory effect of the compounds. The principle of quantitative real-time PCR and the design of primers and probes for analysis of various HAdV types representing different adenovirus species have previously been described. Quantitative real-time PCR was carried out using a primer pair and a FAM-labeled probe detecting and amplifying the viral hexon gene. […]

A549 cells = assay: XTT based cytotoxicity test on A549 cells; assay type: cell-based, human; conditions: for concentration above which the viability of the cells is significantly reduced: A549 cells, XTT (Figure 8C)
Text: as §1, §2

| SMILES | EC50 (HAdV type 5 [1]) [µM] | viability at 24 h, 400 µM [2] [%] | viability at 24 h, 800 µM [2] [%] | concentration above which the viability of the cells is significantly reduced (A549 cells; 24 h) | anti-adenoviral activity (in words) (HAdV type 5 [1]) | also measured |
| --- | --- | --- | --- | --- | --- | --- |
| C[C@H](O)[C@H](C)CCCCC[C@H]1C=CC(=O)O1 [Compound 1a] | 113 | 98 ± 6 | 96 ± 4 |  |  |  |
| CC(=O)[C@H](C)CCCCC[C@H]1C=CC(=O)O1 [Compound 3] | 91 | 102 ± 5 | 101 ± 3 |  |  | binding of the virus to the cells (in words) [3]: did not reduce the binding of the virus to the cells; cytotoxicity at the highest concentration (in words) ([4]; 2 mM, XTT (Figure 6)): no prominent cytotoxicity; also recorded: did not affect the viability of FSU cells to a great extent; virucidal activity (in words) (HAdV 5 virions): did not differ between the pretreated and non-pretreated virions; viral replication, % of non-treated infected control (HAdV type 5 [5]; 200 μM added simultaneously with virus (0 h), qPCR 24 h after infection): below 20%; effect on viral infection (in words) (HAdV type 5 [5]; cells pre-incubated with 200 μM for four hours prior to the addition of virus, qPCR at 24 h): completely blocked the viral infection; cytotoxicity (in words) (A549 cells; XTT, concentrations tested): no cytotoxicity |
| CCC(C)CCCCCC1C=CC(=O)O1 (centres unmarked) [Compound 4] | 90 | 3 ± 1 | 3 ± 1 | above 0.2 mM |  | viability of FSU cells (in words) ([4]; 100 μM, XTT (Figure 6)): in line with untreated DMSO control; cytotoxicity on FSU cells (in words) ([4]; 200 μM, XTT (Figure 6)): toxicity was strongly decreased; viability of FSU cells (in words) ([4]; 400 and 800 μM, XTT): almost zero; viability of A549 cells (in words) (A549 cells; 100 μM, 24 h, XTT (Figure 6)): in line with untreated DMSO control; cytotoxicity on A549 cells (in words) (A549 cells; 200 μM, 24 h, XTT (Figure 6)): toxicity was strongly decreased; viability of A549 cells (in words) (A549 cells; 400 and 800 μM, 24 h, XTT): close to zero; concentration showing cytotoxicity relative to EC50 (A549 cells; cytotoxic concentration compared with the EC50 on HAdV type 5): approximately three times its EC50 value |
| CC(=O)[C@H](C)CCCCC[C@H]1CCC(=O)O1 [Compound 5] |  |  |  |  | eliminated the antiviral activity |  |
| CCC(C)(O)CCCCC[C@H]1C=CC(=O)O1 (some centres unmarked) [Compound 2] | 183 | 106 ± 7 | 100 ± 3 |  |  |  |
| CC[C@H](C)CCCCC[C@H]1CCC(=O)O1 [Compound 6] |  |  |  | above 0.4 mM | eliminated the antiviral activity |  |

Reference: paper PMC3944516, “Isolation and Characterization of Anti-Adenoviral Secondary Metabolites from Marine Actinobacteria” (Marine Drugs, 2014)
